{
  "source": "paper PMC11322497",
  "about": "(Frontiers in Pharmacology, 2024)",
  "key": {"[1]": {"test": "Plasma free selvigaltin pharmacokinetics, acute 5-day treatment", "assay_type": "in vivo, rabbit", "excerpt": "(§1) The dose employed was established based on pilot pharmacokinetics studies in rabbits performed historically in naïve rabbits (data not shown). This first part of the study allowed the determination of the therapeutic benefits of selvigaltin following acute treatment, thus validating the model for further investigation of this mechanism in a chronic treatment protocol.\n(§2) After 1 week of standard diet, animals (n = 12) were randomly assigned to the following groups (Table 1A): • Control rabbits continued to receive a regular diet (RD) for 12 weeks and were treated for 5 days (days 1–5, p.o.), during the last week before culling, with either vehicle; RD+1W Veh group] or GB1211 (30 mg/kg; RD + 1W 30 mg group); • Rabbits received a high fat diet (HFD) for 12 weeks (RD implemented with 0.5% cholesterol and 2.5% vegetable fat) and were treated for 5 days (days 1–5, p.o.), during the last week before culling, with either vehicle (HFD + 1W Veh group) or GB1211 (30 mg/kg; HFD + 1W 30 mg group).\nLiver homogenates were prepared by homogenisation of 200 mg liver tissue/ml water using a Fisherbrand™ Homogenizer 150 (Thermo Fisher Scientific, Waltham, MA). Plasma or liver homogenate were mixed 1 part matrix with 3 parts acetonitrile prior to centrifugation at 10,000 g for 10 min at 18°C with supernatant diluted x4 with water prior to LC-MS/MS analysis."}, "[2]": {"tested_on": "high fat diet (HFD) rabbit model of metabolic-associated steatohepatitis (MASH)", "test": "HFD rabbit study, acute 5-day treatment at week 12: clinical and biochemical data, tolerability", "assay_type": "in vivo", "details": "for ALT / AST / Glycaemia / Liver Weight / MAP / OGTT (iAUC) / Plasma Cholesterol / Plasma Triglycerides: 30 mg/kg p.o. q.d. 5 days, mean ± SD, n = 3", "method": "A total number of 64 male New Zealand White rabbits (Charles River, Calco, Lecco, Italy), weighing about 3 kg, were individually caged under standard conditions in a temperature- and humidity-controlled room on a 12 h light/dark cycle. Water and food were unrestricted throughout the study. Experimental procedures were conducted using the facilities of the Department of Biomedical Experimental and Clinical Sciences “Mario Serio” and Department of Experimental and Clinical Medicine, and those of CE.S.A.L. (Centro Stabulazione degli Animali da Laboratorio), and NEUROFARBA Department, University of Florence, Italy.\nas §1, §2\nThe oral glucose tolerance test (OGTT) was performed in accordance with the published method ([Filippi et al., 2009]). Briefly, after an overnight fast, a 50% glucose solution was orally administered to the animals at a dose of 1.5 g/kg. Blood samples were collected before and 15, 30, and 120 min after glucose loading. The incremental area under the curve (iAUC) was calculated by using GraphPad Prism (GraphPad Software, San Diego, CA). Blood samples for analyses were obtained from the marginal ear vein at week 8 or 12, in all groups. All blood samples were collected in standard conditions, before 10 a.m. after an overnight fasting. The blood was immediately centrifuged at 2,000 g for 20 min at 4°C and collected plasma/serum stored at −80°C until assayed. Plasma glucose, total cholesterol, triglycerides, transaminases (AST and ALT), and gamma-glutamyl transferase levels were measured using an automated system (Cobas 8000, Roche Diagnostics International AG, Rotkreuz, Switzerland). Serum alkaline phosphatase, albumin and total bilirubin levels were measured at IDEXX Laboratories (Kornwestheim, Germany), using an automated system (AU480, Beckman-Coulter, Brea, CA) with kinetic and photometric colour tests as per the following methods: alkaline phosphatase - alkaline buffer solution [2-amino-2-methylpropanol (AMP) in conjunction with p-nitrophenyl phosphate (pNPP)], according to the recommendation of the International Federation for Clinical Chemistry; albumin - the reaction of bromocresol green with albumin produces a colour complex, the absorption of which is measured dichromatically ([Doumas et al., 1971]); total bilirubin - a stabilized diazonium salt, 3,5-dichlorophenyldiazonium tetrafluoroborate (DPD), reacts with bilirubin to formazobilirubin, which absorbs at 570 nm ([Tolman and Rej, 1999]).\nMean arterial blood pressure (MAP) was measured by using a polyethylene catheter inserted into a femoral artery at week 8 or 12, after ketamine (10 mg/kg i.v.) and sodium thiopental (50 mg/kg i.v.) sedation."}, "[3]": {"tested_on": "high fat diet (HFD) rabbit model of metabolic-associated steatohepatitis (MASH)", "test": "HFD rabbit study, prolonged 4-week treatment: protein expression in liver homogenates", "assay_type": "in vivo, New Zealand White rabbits", "details": "HFD rabbits, weeks 9–12, mean±SD, n=3", "method": "After 1 week (W) of RD, the animals (n = 44) were randomly assigned to the following groups (Table 1B): • Control rabbits continued to receive a RD for 12 weeks and were treated with vehicle for 5 days a week (days 1–5, p.o.) during the last 4 weeks before culling (RD + 4W Veh group); • Rabbits received a HFD for 8 weeks and were culled (HFD 8W group); • Rabbits received a HFD for 12 weeks and were treated with vehicle for 5 days a week (days 1–5, p.o.) during the last 4 weeks before culling (HFD+4W Veh group); • Rabbits received a HFD for 12 weeks and were treated with GB1211 (0.3 mg/kg) for 5 days a week (days 1–5, p.o.) during the last 4 weeks before culling (HFD + 4W 0.3 mg group); • Rabbits received a HFD for 12 weeks and were treated with GB1211 (1.0 mg/kg) for 5 days a week (days 1–5, p.o.) during the last 4 weeks before culling (HFD + 4W 1.0 mg group); • Rabbits received a HFD for 12 weeks and were treated with GB1211 (5.0 mg/kg) for 5 days a week (days 1–5, p.o.) during the last 4 weeks before culling (HFD + 4W 5.0 mg group).\nQuantitative analyses of collagen, IL6 and TNFα expression in liver biopsies were carried out using available commercial assays. Collagen content was evaluated in liver homogenates employing the Sircol S2000 assay (Biocolor, Carrickfergus, United Kingdom), in accordance with manufacturer’s protocols. Briefly, 30 mg liver biopsies were fragmented in the appropriate reagent and the supernatant was bound to a dye reagent containing Sirius Red, which would generate a colorimetric reaction quantified as absorbance using an internal collagen standard curve. IL6 and TNFα were quantified in liver homogenates using ELISA assay kits (both from Cloud-Clone Corp, Katy, TX). Briefly, 50 mg liver biopsies were homogenized in proprietary lysis buffer and the supernatants were analyzed by sandwich immunoassays, following the producer’s instructions."}},
  "data": [
    {"smiles": "OC[C@H]1O[C@H](Sc2cncc(Br)c2)[C@H](O)[C@@H](n2cc(-c3cc(F)c(F)c(F)c3)nn2)[C@H]1O", "note": "[selvigaltin]", "values": [
      {"measurement": "steady state systemic plasma drug concentration vs rabbit galectin-3 binding KD", "setting": "[1]; 30 mg/kg/day p.o., acute treatment", "result": "~40", "unit": "fold"},
      {"measurement": "plasma exposure in HFD+1W 30 mg vs RD+1W 30 mg", "setting": "[1]; day 4 of treatment, 30 mg/kg p.o.", "result": "marginal increase in exposure"},
      {"measurement": "tolerability", "setting": "[2]; 30 mg/kg/day p.o., 5 days", "result": "well tolerated"},
      {"measurement": "ALT", "setting": "[2]; HFD rabbits", "result": "97.33 ± 54.99", "unit": "U/L"},
      {"measurement": "AST", "setting": "[2]; HFD rabbits", "result": "231.67 ± 22.30", "unit": "U/L"},
      {"measurement": "Glycaemia", "setting": "[2]; HFD rabbits", "result": "1.60 ± 0.14", "unit": "gr/L"},
      {"measurement": "Liver Weight", "setting": "[2]; HFD rabbits", "result": "3.94 ± 0.55 % of BW"},
      {"measurement": "MAP", "setting": "[2]; HFD rabbits", "result": "130.83 ± 20.36", "unit": "mmHg"},
      {"measurement": "OGTT (iAUC)", "setting": "[2]; HFD rabbits", "result": "220.33 ± 8.63"},
      {"measurement": "Plasma Cholesterol", "setting": "[2]; HFD rabbits", "result": "2064.00 ± 268.00", "unit": "mg/dL"},
      {"measurement": "Plasma Triglycerides", "setting": "[2]; HFD rabbits", "result": "88.00 ± 42.14", "unit": "mg/dL"},
      {"measurement": "ALT", "setting": "[2]; RD rabbits", "result": "36.33 ± 25.11", "unit": "U/L"},
      {"measurement": "AST", "setting": "[2]; RD rabbits", "result": "29.33 ± 5.86", "unit": "U/L"},
      {"measurement": "Glycaemia", "setting": "[2]; RD rabbits", "result": "1.12 ± 0.17", "unit": "gr/L"},
      {"measurement": "Liver Weight", "setting": "[2]; RD rabbits", "result": "2.40 ± 0.33 % of BW"},
      {"measurement": "MAP", "setting": "[2]; RD rabbits", "result": "88.75 ± 14.09", "unit": "mmHg"},
      {"measurement": "OGTT (iAUC)", "setting": "[2]; RD rabbits", "result": "165.90 ± 11.12"},
      {"measurement": "Plasma Cholesterol", "setting": "[2]; RD rabbits", "result": "21.67 ± 3.51", "unit": "mg/dL"},
      {"measurement": "Plasma Triglycerides", "setting": "[2]; RD rabbits", "result": "56.00 ± 21.28", "unit": "mg/dL"},
      {"measurement": "Collagen protein in liver homogenate", "setting": "[3]; 0.3 mg/kg p.o.", "result": "57.63 ± 2.73", "unit": "µg/mg Liver"},
      {"measurement": "IL6 protein in liver homogenate", "setting": "[3]; 0.3 mg/kg p.o.", "result": "76.12 ± 8.47", "unit": "pg/g Liver"},
      {"measurement": "TNFα protein in liver homogenate", "setting": "[3]; 0.3 mg/kg p.o.", "result": "1.61 ± 0.54", "unit": "pg/mg Liver"},
      {"measurement": "Collagen protein in liver homogenate", "setting": "[3]; 1.0 mg/kg p.o.", "result": "45.25 ± 3.42", "unit": "µg/mg Liver"},
      {"measurement": "IL6 protein in liver homogenate", "setting": "[3]; 1.0 mg/kg p.o.", "result": "63.53 ± 20.39", "unit": "pg/g Liver"},
      {"measurement": "TNFα protein in liver homogenate", "setting": "[3]; 1.0 mg/kg p.o.", "result": "1.24 ± 0.58", "unit": "pg/mg Liver"},
      {"measurement": "Collagen protein in liver homogenate", "setting": "[3]; 5.0 mg/kg p.o.", "result": "50.86 ± 5.22", "unit": "µg/mg Liver"},
      {"measurement": "IL6 protein in liver homogenate", "setting": "[3]; 5.0 mg/kg p.o.", "result": "64.27 ± 18.36", "unit": "pg/g Liver"},
      {"measurement": "TNFα protein in liver homogenate", "setting": "[3]; 5.0 mg/kg p.o.", "result": "1.33 ± 0.68", "unit": "pg/mg Liver"}
    ]}
  ]
}
